Square brackets hold non-standard residues; d marks the D form. Ends that are not written are not given here. Peptide text beside a SMILES is read from it.
How the values were obtained:
human red blood cells = assay: Hemolysis assay; type: cell-based; conditions: 1 hour at 37° C., versus untreated controls
Procedure: The hemolytic activity of BmKn2, dBmKn2, Kn2-7, dKn2-7, and melittin was assessed using human red blood cells (RBCs). The RBCs were prepared from human whole blood (BioreclamationIVT, Westbury, N.Y., USA) according to a previous report (Evans et al, J. Vis. Exp. (73), 50166, doi:10.3791/50166 (2013)). In brief, human whole blood was centrifuged, and the RBCs were washed with PBS 3-4 times and then diluted 1:20 of the original volume in PBS. Peptides at various concentrations from 0-400 μg/mL in PBS were mixed with an equal volume of the diluted RBCs in a 96-well microtiter plate and allowed to incubate for 1 hour at 37° C. The plate was then centrifuged at 500 g for 5 minutes and 100 μL of the supernatant was transferred to a 96-well, transparent, flat-bottomed plate. Sample absorbances were read at 490 nm using a BioTek Synergy HT plate reader (BioTek, Winooski, Vt.). PBS was used as a negative control (blank), and 1% Triton X-100 was used as a positive control for 100% hemolysis. The percent hemolysis for the unknown samples was calculated according to the following equation: […]

[1] = Stability of peptides in human serum (LC-MS); type: in vitro ADME; conditions: 37° C.; for remaining at 24 h, 50 μg/mL: 25% human serum (v/v), pH 7, 25% human serum in RPMI 1640, after 24 hours, read-out: peptide remaining, percent of t0; for reduction of peptide amount: 100% culture medium (RPMI 1640), 24 hours, 50 μg/mL
Procedure: The stability of Kn2-7 and dKn2-7 (50 μg/mL) were studied in 25% human serum (v/v) (BioreclamationIVT, Westbury, N.Y., USA) in 1640 RPMI media (made with 165 mM MOPS, pH 7.0) or in 100% 1640 RPMI medium at 37° C. (H. Jenssen, S. I. Aspmo, Serum stability of peptides, Peptide-Based Drug Design (2008) 177-186.) At predetermined time points, 100 μL aliquots of each solution was removed and thoroughly mixed with 200 μL of 96% ethanol. This was incubated on ice for 15 minutes followed by centrifugation at 10,000 g for 5 minutes to pellet the precipitated proteins. The supernatant (200 μL) was carefully removed, spiked with peptide 1018 (VRLIVAVRIWRR; SEQ ID NO. 3) at 1 μg/mL as the internal standard, and stored at −20° C. prior to liquid chromatography-mass spectrometry (LC/MS) analysis. Peptide 1018 is a synthetic peptide derived from bactenecin, a bovine neutrophil host defense peptide. (Mansour, S. C., et al. (2015) J. Pept. Sci., 21, 323-329. doi: 10.1002/psc.2708. The peptide sequence was synthesized by Genemed Synthesis Inc. (San Antonio, Tex.).
Liquid chromatography was performed on a Shimadzu HPLC system (Shimadzu Scientific Instruments, Inc., Columbia, Md.). A 10-μl aliquot of the sample was injected into an Agilent ZORBAX Eclipse XDB 80 Å C18 (2.1×50 mm, 5 μm) column (Agilent, Santa Clara, Calif.) held at 40° C. Mass spectrometric analysis was carried out on an AB Sciex API 4000 mass spectrometer (AB Sciex, Framingham, Mass.) with an electrospray ionization (ESI) interface and triple quadrupole mass analyzer. The peak areas of Kn2-7 and dKn2-7 on the LC-MS chromatograms were standardized to the peak area for peptide 1018.

C. albicans = system: C. albicans; parameters: unit not given beside the values; conditions: compared with dKn2-7; cited from earlier work

Q: For `CC[C@@H](C)[C@@H](NC(=O)[C@H](N)Cc1ccccc1)C(=O)NCC(=O)N[C@H](C)C(=O)N[C@@H](C(=O)N[C@H](C)C(=O)N[C@H](CCCNC(=N)N)C(=O)N[C@H](CC(C)C)C(=O)N[C@H](CC(C)C)C(=O)N[C@H](CO)C(=O)N[C@H](CCCCN)C(=O)N[C@@H](C(=O)N[C@H](Cc1ccccc1)C(=O)O)[C@H](C)CC)[C@H](C)CC` [dBmKn2] (H-[dF][dI]G[dA][dI][dA][dR][dL][dL][dS][dK][dI][dF]-OH; N-terminus and C-terminus assumed), which “concentration at which a significant increase in hemolysis starts” value (human red blood cells) is on record?
A: 100 µg/mL

Q: What does the source list for `CC[C@@H](C)[C@@H](NC(=O)[C@H](N)Cc1ccccc1)C(=O)N[C@H](CCCCN)C(=O)N[C@H](CCCNC(=N)N)C(=O)N[C@@H](C(=O)N[C@H](C)C(=O)N[C@H](CCCNC(=N)N)C(=O)N[C@H](CC(C)C)C(=O)N[C@H](CC(C)C)C(=O)N[C@H](CCCNC(=N)N)C(=O)N[C@H](CCCCN)C(=O)N[C@@H](C(=O)N[C@H](Cc1ccccc1)C(=O)O)[C@H](C)CC)[C@H](C)CC` [dKn2-7] (H-[dF][dI][dK][dR][dI][dA][dR][dL][dL][dR][dK][dI][dF]-OH; N-terminus and C-terminus assumed)?
A: concentration at which a significant increase in hemolysis starts (human red blood cells): 200 µg/mL; remaining at 24 h, 50 μg/mL [1]: ~43%; reduction of peptide amount [1]: about 20%

Q: With `CC[C@H](C)[C@H](NC(=O)CN)C(=O)NCC(=O)N[C@@H](C)C(=O)N[C@H](C(=O)N[C@@H](CC(C)C)C(=O)N[C@@H](CCCCN)C(=O)N[C@H](C(=O)N[C@@H](CC(C)C)C(=O)N[C@H](C(=O)N[C@H](C(=O)NCC(=O)N[C@@H](CC(C)C)C(=O)N1CCC[C@H]1C(=O)N[C@@H](C)C(=O)N[C@@H](CC(C)C)C(=O)N[C@H](C(=O)N[C@@H](CO)C(=O)N[C@@H](Cc1c[nH]c2ccccc12)C(=O)N[C@H](C(=O)N[C@@H](CCCCN)C(=O)N[C@@H](CCCNC(=N)N)C(=O)N[C@@H](CCCCN)C(=O)N[C@@H](CCCNC(=N)N)C(=O)N[C@@H](CCC(N)=O)C(=O)N[C@@H](CCC(N)=O)C(N)=O)[C@@H](C)CC)[C@@H](C)CC)[C@@H](C)O)[C@@H](C)O)C(C)C)C(C)C` [melittin, reference compound] as the compound, how does the “concentration at which a significant increase in hemolysis starts” value (human red blood cells) read?
A: ≥ 3.125 µg/mL

Q: For LL-37: well-studied LL-37 peptide, which “MIC against C. albicans, times higher than dKn2-7” value (C. albicans) is on record?
A: ~3 ×

Q: With “FIGAIARLLSKIF [BmKn2, FIGAIARLLSKIF (SEQ ID NO. 1)]” as the compound, how does the “concentration at which a significant increase in hemolysis starts” value (human red blood cells) read?
A: 100 µg/mL

Q: Which “concentration at which a significant increase in hemolysis starts” value (human red blood cells) does the source give for “FIKRIARLLRKIF [Kn2-7, FIKRIARLLRKIF (SEQ ID NO. 2)]” here?
A: 200 µg/mL

Q: And the remaining at 24 h, 50 μg/mL [1]?
A: ~9%

Q: What about the “reduction of peptide amount” value [1] of the same compound?
A: about 20%

From US11524051B2, “Methods of treating fungal infections” (United States of America as represented by the Secretary of …, priority 2017, dated 2022)
